The structures appear in SMILES notation.

This test concerns the target T1, hCB1 (Homo sapiens, UniProt P21554).
T1 construct: expressed in transfected cells
Nature of the test: [35S]-GTPγS binding assay on membranes from cells stably transfected with the CB1 gene, inhibition of agonist CP55940. The class given is biochemical. To be noted: EC80 concentration of agonist CP55940, membranes of CB1-transfected cells. The source says:
Compounds of the present invention are active against the receptor product of the CB1 gene. The compounds of the present invention are active at the CB1 receptor (IC50<1 micromolar). Most preferred compounds have IC50<200 nanomolar. The affinity of the compounds of the invention for central cannabinoid receptors is demonstrable in methods described in Devane et al., Molecular Pharmacology, 1988, 34,605 or those described in WO01/70700 or EP 656354. Alternatively the assay may be performed as follows.
10 μg of membranes prepared from cells stably transfected with the CB1 gene were suspended in […] of 100 mM NaCl, 5 mM MgCl2, 1 mM EDTA, 50 mM HEPES (pH 7.4), 1 mM DTT, 0.1% BSA and 100 μM GDP. To this was added an EC80 concentration of agonist (CP55940), the required concentration of test compound and 0.1 μCi [^35S]-GTPγS. […] Filters were then covered with scintilant and counted for the amount of [^35S]-GTPγS retained by the filter.
Activity is measured in the absence of all ligands (minimum activity) or in the presence of an EC80 concentration of CP55940 (maximum activity). […] At various concentrations of novel ligand, activity is calculated as a percentage of the maximum activity and plotted. The data are fitted using the equation y=A+((B−A)/1+((C/x)UD)) and the IC50 value determined as the concentration required to give half maximal inhibition of GTPγS binding under the conditions used.

T1 sequence (P21554 whole entry): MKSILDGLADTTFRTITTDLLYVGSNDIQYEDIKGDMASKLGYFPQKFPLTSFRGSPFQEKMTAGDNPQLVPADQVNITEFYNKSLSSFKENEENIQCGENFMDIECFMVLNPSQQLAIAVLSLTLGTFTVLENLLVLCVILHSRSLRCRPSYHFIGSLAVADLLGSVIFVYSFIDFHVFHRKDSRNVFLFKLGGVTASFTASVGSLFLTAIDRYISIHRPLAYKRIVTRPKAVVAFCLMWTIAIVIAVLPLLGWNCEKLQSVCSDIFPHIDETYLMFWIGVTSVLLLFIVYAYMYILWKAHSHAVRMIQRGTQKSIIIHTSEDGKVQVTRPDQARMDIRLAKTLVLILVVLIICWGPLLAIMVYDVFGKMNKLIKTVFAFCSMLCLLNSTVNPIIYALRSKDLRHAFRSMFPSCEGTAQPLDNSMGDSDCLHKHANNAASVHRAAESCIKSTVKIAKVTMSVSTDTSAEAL

On to `CC1COC(c2nc(-c3ccc(Cl)cc3)c(-c3ccc(Cl)cc3)nc2C(=O)OC(C)(C)C)=N1` (stereo not shown) [Example 5, 5,6-bis(4-chlorophenyl)-3-(4-methyl-4,5-dihydrooxazol-2-yl)-pyrazine-2-carboxylic acid tert-butylester], for which the IC50 stood at 1.8 nM.
